# Data reported in publication PMC2813745, “A novel inhibitor of the PI3K/Akt pathway based on the structure of inositol 1,3,4,5,6-pentakisphosphate” (British Journal of Cancer, 2010).
# Test system: SKOV-3
# Experiment: Cell survival by cell counting, SKOV-3
# Format: cell-based, human
# Settings: SKOV-3, 72 h
# Protocol: Cells seeded in a 24-well plate were treated with the indicated compounds in serum free DMEM or DMEM containing 0.5% FBS (PC3). After 72 h, the number of surviving cells was assessed by manual cell counting or by using the cell counter CDA-500 (Sysmex, Milton Keynes, UK). Alternatively, after 48 h, the number of apoptotic cells was assessed by acridine orange/ethidium bromide assay as described ([Piccolo et al, 2004]; [Maffucci et al, 2005]). SRB test was carried out in SKOV-3 and PC3 seeded in 96-well plate (3800 cells per well or 5800 cells per well, respectively) after 72 h of treatment as described ([Cappella et al, 2001]).
# The number of surviving cells was assessed by cell counting. Data are mean±s.e. of n=4 (A) and n=2 (B) independent experiments. ^**=P<0.05. […] The number of apoptotic cells was assessed by acridine orange/ethidium bromide assay. Data are mean±s.e. of three independent experiments. ^**=P<0.05.
compound,measurement,value
"O=P(O)(O)OC1C(OCc2ccccc2)C(OP(=O)(O)O)C(OP(=O)(O)O)C(OP(=O)(O)O)C1OP(=O)(O)O (stereo not shown) [2-O-Bn-InsP5, 2-O-benzyl-myo-inositol 1,3,4,5,6-pentakisphosphate]",number of surviving cells,strongly reduced the number of surviving
